What was measured:
A549 = experiment: Cytotoxicity against human A549 cells after 96 hrs by microplate reader analysis; format: functional, cell-based; conditions: A549, 96 h
HT-29 = experiment: Cytotoxicity against human HT-29 cells after 96 hrs by microplate reader analysis; format: functional, cell-based; conditions: HT-29, 96 h
HCT-116 [1] = experiment: Cytotoxicity against human HCT116 cells after 96 hrs by microplate reader analysis; format: functional, cell-based; conditions: HCT-116, 96 h
Mus musculus [2] = experiment: Toxicity in BALB/c mouse assessed as mortality at 0.75 mg/kg/day, iv administered on day 1, 5 and 9; format: organism-based; parameters: route intravenous; conditions: in vivo
Mus musculus [3] = experiment: Toxicity in BALB/c mouse assessed as mortality at 1.5 mg/kg/day, iv administered on day 1, 5 and 9; format: organism-based; parameters: route intravenous; conditions: in vivo
Liver = experiment: Metabolic stability in BALB/c mouse liver microsomes at 1 umol/l by LC-MS/MS analysis; format: ADME; conditions: 1 µM
HCT-116 [4] = experiment: Antitumor activity against human HCT116 cells xenografted in BALB/c mouse assessed as tumor growth inhibition at 0.75 mg/kg/day, iv administered on day 1, 5 and 9 relative to control; format: functional; conditions: HCT-116, 24 h, read-out: TGI
HCT-116 [5] = experiment: Antitumor activity against human HCT116 cells xenografted in BALB/c mouse assessed as tumor growth inhibition at 1.5 mg/kg/day, iv administered on day 1, 5 and 9 relative to control; format: functional; conditions: HCT-116, 24 h, read-out: TGI

COc1c(Cl)c2c(c(OC)c1OC)-c1ccc(OC)c(=O)cc1[C@@H](NC(=O)c1ccc([N+](=O)[O-])cc1)CC2
IC50 (A549): 11.2 nM | IC50 (HT-29): 6.9 nM | IC50 (HCT-116 [1]): 6.2 nM

COc1c(Cl)c2c(c(OC)c1OC)-c1ccc(OC)c(=O)cc1[C@@H](NC(=O)CN(C)C)CC2
IC50 (A549): 160 nM | IC50 (HT-29): 46 nM | IC50 (HCT-116 [1]): 67 nM

COc1c(Cl)c2c(c(OC)c1OC)-c1ccc(OC)c(=O)cc1[C@@H](NC(=O)c1ccc(N(C)C)cc1)CC2
IC50 (A549): 169 nM | IC50 (HT-29): 148 nM | IC50 (HCT-116 [1]): 150 nM

COc1c(Cl)c2c(c(OC)c1OC)-c1ccc(OC)c(=O)cc1[C@@H](NC(=O)CCCC(=O)O)CC2
IC50 (A549): 5360 nM | IC50 (HT-29): 2250 nM | IC50 (HCT-116 [1]): 3680 nM

CCC(O)(CC)C(=O)N[C@H]1CCc2c(Cl)c(OC)c(OC)c(OC)c2-c2ccc(OC)c(=O)cc21
IC50 (A549): 38 nM | IC50 (HT-29): 36.5 nM | IC50 (HCT-116 [1]): 38.7 nM

COc1cc2c(c(OC)c1OC)-c1ccc(OC)c(=O)cc1[C@@H](NC(C)=O)CC2 [COLCHICINE]
Activity (Mus musculus [2]): Non-toxic | Activity (Mus musculus [3]): Non-toxic | Stability (Liver): 1 µL/min/mg | inhibition in vivo at 0.75 mg/kg/day (HCT-116 [4]): 14% | inhibition in vivo at 1.5 mg/kg/day (HCT-116 [5]): 92.6%

COc1ccc(C(=O)N[C@H]2CCc3c(Cl)c(OC)c(OC)c(OC)c3-c3ccc(OC)c(=O)cc32)c(OC)c1
IC50 (A549): 85.4 nM | IC50 (HT-29): 53.1 nM | IC50 (HCT-116 [1]): 57.3 nM

CCCC(=O)N[C@H]1CCc2c(Cl)c(OC)c(OC)c(OC)c2-c2ccc(OC)c(=O)cc21
IC50 (A549): 9.8 nM | IC50 (HT-29): 8.3 nM | IC50 (HCT-116 [1]): 7.6 nM

COc1c(Cl)c2c(c(OC)c1OC)-c1ccc(OC)c(=O)cc1[C@@H](NC(=O)c1ccccc1C#N)CC2
IC50 (A549): 140 nM | IC50 (HT-29): 49.7 nM | IC50 (HCT-116 [1]): 104 nM

COc1cccc(C(=O)N[C@H]2CCc3c(Cl)c(OC)c(OC)c(OC)c3-c3ccc(OC)c(=O)cc32)c1
IC50 (A549): 2.7 nM | IC50 (HT-29): 1.4 nM | IC50 (HCT-116 [1]): 1.6 nM

COc1c(Cl)c2c(c(OC)c1OC)-c1ccc(OC)c(=O)cc1[C@@H](NC(=O)CC(C)C)CC2
IC50 (A549): 40.3 nM | IC50 (HT-29): 16.1 nM | IC50 (HCT-116 [1]): 23.7 nM

COc1c(Cl)c2c(c(OC)c1OC)-c1ccc(OC)c(=O)cc1[C@@H](N)CC2
IC50 (A549): 241 nM | IC50 (HT-29): 225 nM | IC50 (HCT-116 [1]): 207 nM

COc1c(Cl)c2c(c(OC)c1OC)-c1ccc(OC)c(=O)cc1[C@@H](NC(=O)CCC(=O)O)CC2
IC50 (A549): > 5 µg/mL | IC50 (HT-29): 6270 nM | IC50 (HCT-116 [1]): 6580 nM

COc1c(Cl)c2c(c(OC)c1OC)-c1ccc(OC)c(=O)cc1[C@@H](NC(=O)[C@H](C)O)CC2
IC50 (A549): 18.7 nM | IC50 (HT-29): 8.5 nM | IC50 (HCT-116 [1]): 7.9 nM

COc1c(Cl)c2c(c(OC)c1OC)-c1ccc(OC)c(=O)cc1[C@@H](NC(=O)c1ccc(F)cc1)CC2
IC50 (A549): 6.7 nM | IC50 (HT-29): 2.2 nM | IC50 (HCT-116 [1]): 5.5 nM

COc1ccccc1C(=O)N[C@H]1CCc2c(Cl)c(OC)c(OC)c(OC)c2-c2ccc(OC)c(=O)cc21
IC50 (A549): 13.2 nM | IC50 (HT-29): 12.5 nM | IC50 (HCT-116 [1]): 26.4 nM

COc1ccc(C(=O)N[C@H]2CCc3c(Cl)c(OC)c(OC)c(OC)c3-c3ccc(OC)c(=O)cc32)cc1
IC50 (A549): 3.8 nM | IC50 (HT-29): 8 nM | IC50 (HCT-116 [1]): 8 nM

COc1cc(OC)cc(C(=O)N[C@H]2CCc3c(Cl)c(OC)c(OC)c(OC)c3-c3ccc(OC)c(=O)cc32)c1
IC50 (A549): 14.2 nM | IC50 (HT-29): 7.9 nM | IC50 (HCT-116 [1]): 6.5 nM

COc1c(Cl)c2c(c(OC)c1OC)-c1ccc(OC)c(=O)cc1[C@@H](NC(=O)CS)CC2
IC50 (A549): 400 nM | IC50 (HT-29): 209 nM | IC50 (HCT-116 [1]): 192 nM

COc1c(Cl)c2c(c(OC)c1OC)-c1ccc(OC)c(=O)cc1[C@@H](NC(=O)c1cccc([N+](=O)[O-])c1)CC2
IC50 (A549): 1.7 nM | IC50 (HT-29): 0.1 nM | IC50 (HCT-116 [1]): 0.8 nM

COc1c(Cl)c2c(c(OC)c1OC)-c1ccc(OC)c(=O)cc1[C@@H](NC(=O)c1cc([N+](=O)[O-])cc([N+](=O)[O-])c1)CC2
IC50 (A549): 31.2 nM | IC50 (HT-29): 5 nM | IC50 (HCT-116 [1]): 6.8 nM

COc1c(Cl)c2c(c(OC)c1OC)-c1ccc(OC)c(=O)cc1[C@@H](NC(=O)c1ccc(C#N)cc1)CC2
IC50 (A549): 11.9 nM | IC50 (HT-29): 6.7 nM | IC50 (HCT-116 [1]): 6.7 nM

COc1c(Cl)c2c(c(OC)c1OC)-c1ccc(OC)c(=O)cc1[C@@H](NC(=O)c1ccccc1)CC2
IC50 (A549): 4.7 nM | IC50 (HT-29): 1.6 nM | IC50 (HCT-116 [1]): 1.4 nM

COc1c(Cl)c2c(c(OC)c1OC)-c1ccc(OC)c(=O)cc1[C@@H](NC(=O)c1cccc(F)c1)CC2
IC50 (A549): 3.5 nM | IC50 (HT-29): 1.5 nM | IC50 (HCT-116 [1]): 1.6 nM

CCCCCCC(=O)N[C@H]1CCc2c(Cl)c(OC)c(OC)c(OC)c2-c2ccc(OC)c(=O)cc21
IC50 (A549): 49.7 nM | IC50 (HT-29): 38.3 nM | IC50 (HCT-116 [1]): 36.9 nM

COc1cc(C(=O)N[C@H]2CCc3c(Cl)c(OC)c(OC)c(OC)c3-c3ccc(OC)c(=O)cc32)cc(OC)c1OC
IC50 (A549): 124 nM | IC50 (HT-29): 47.7 nM | IC50 (HCT-116 [1]): 51.7 nM

COc1c(Cl)c2c(c(OC)c1OC)-c1ccc(OC)c(=O)cc1[C@@H](NC(=O)CCCO)CC2
IC50 (A549): 357 nM | IC50 (HT-29): 168 nM | IC50 (HCT-116 [1]): 175 nM

COc1c(Cl)c2c(c(OC)c1OC)-c1ccc(OC)c(=O)cc1[C@@H](NC(=O)c1ccccc1F)CC2
IC50 (A549): 1.7 nM | IC50 (HT-29): 1.5 nM | IC50 (HCT-116 [1]): 1.6 nM

COc1c(Cl)c2c(c(OC)c1OC)-c1ccc(OC)c(=O)cc1[C@@H](NC(=O)[C@@H](C)O)CC2
IC50 (A549): 19.5 nM | IC50 (HT-29): 7.2 nM | IC50 (HCT-116 [1]): 7.7 nM

COc1c(Cl)c2c(c(OC)c1OC)-c1ccc(OC)c(=O)cc1[C@@H](NC(=O)c1ccccc1[N+](=O)[O-])CC2
IC50 (A549): 56.6 nM | IC50 (HT-29): 31.7 nM | IC50 (HCT-116 [1]): 30.2 nM

COc1c(Cl)c2c(c(OC)c1OC)-c1ccc(OC)c(=O)cc1[C@@H](NC(=O)c1cc(F)c(F)c(F)c1)CC2
IC50 (A549): 6.6 nM | IC50 (HT-29): 6.3 nM | IC50 (HCT-116 [1]): 7.2 nM

COc1c(Cl)c2c(c(OC)c1OC)-c1ccc(OC)c(=O)cc1[C@@H](NC(=O)C1CCCCC1)CC2
IC50 (A549): 10.4 nM | IC50 (HT-29): 7.1 nM | IC50 (HCT-116 [1]): 7.2 nM

COc1c(Cl)c2c(c(OC)c1OC)-c1ccc(OC)c(=O)cc1[C@@H](NC(=O)c1ccccc1N(C)C)CC2
IC50 (A549): 206 nM | IC50 (HT-29): 186 nM | IC50 (HCT-116 [1]): 171 nM

COc1c(Cl)c2c(c(OC)c1OC)-c1ccc(OC)c(=O)cc1[C@@H](NC(=O)c1cccc(C#N)c1)CC2
IC50 (A549): 7.4 nM | IC50 (HT-29): 1.6 nM | IC50 (HCT-116 [1]): 4.1 nM

COc1c(Cl)c2c(c(OC)c1OC)-c1ccc(OC)c(=O)cc1[C@@H](NC(=O)CCN(C)C)CC2
IC50 (A549): 960 nM | IC50 (HT-29): 354 nM | IC50 (HCT-116 [1]): 539 nM

COc1c(Cl)c2c(c(OC)c1OC)-c1ccc(OC)c(=O)cc1[C@@H](NC(=O)CCO)CC2
IC50 (A549): 230 nM | IC50 (HT-29): 46.1 nM | IC50 (HCT-116 [1]): 48.6 nM
